Measured values taken from ChEMBL document CHEMBL1201862, “PubChem BioAssay data set” (2004).
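Results reflect a 48-hour exposure of cells in 96-well plates to compound at five concentrations. GI50: concentration for 50% inhibition of growth.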 Activity calls are given as the source filed them. Rule as the data show it: active = GI50 up to about 1.1 µM and inactive = higher.

Legend:
Experiment in all cases: inhibition of tumour cell growth, NCI panel, 48 h
NCI-H23 = tested on: NCI-H23
PC-3 = tested on: PC-3
DU-145 = tested on: DU-145
A549 = tested on: A549
MDA-MB-231 = tested on: MDA-MB-231
SNB-75 = tested on: SNB-75
SF-539 = tested on: SF-539
IGROV-1 = tested on: IGROV-1
CAKI-1 = tested on: CAKI-1
HOP-62 = tested on: HOP-62
UACC-62 = tested on: UACC-62
TK-10 = tested on: TK-10
Malme-3M = tested on: Malme-3M
OVCAR-5 = tested on: OVCAR-5
LOX IMVI = tested on: LOX IMVI
NCI/ADR-RES = tested on: NCI/ADR-RES
UO-31 = tested on: UO-31
EKVX = tested on: EKVX
OVCAR-3 = tested on: OVCAR-3
Hs-578T = tested on: Hs-578T

Row | Structure (SMILES) | GI50 (NCI-H23) | GI50 (PC-3) | GI50 (DU-145) | GI50 (A549) | GI50 (MDA-MB-231) | GI50 (SNB-75) | GI50 (SF-539) | GI50 (IGROV-1) | GI50 (CAKI-1) | GI50 (HOP-62) | GI50 (UACC-62) | GI50 (TK-10) | GI50 (Malme-3M) | GI50 (OVCAR-5) | GI50 (LOX IMVI) | GI50 (NCI/ADR-RES) | GI50 (UO-31) | GI50 (EKVX) | GI50 (OVCAR-3) | GI50 (Hs-578T)
1 | CC(=O)[C@@]1(O)CC[C@H]2[C@@H]3C[C@H](C)C4=CC(=O)CC[C@]4(C)[C@H]3[C@@H](O)C[C@@]21C | > 100 µM (inactive) | > 100 µM (inactive) | > 100 µM (inactive) | 60.1 µM (inactive) | > 100 µM (inactive) | > 100 µM (inactive) | > 100 µM (inactive) | > 100 µM (inactive) | > 100 µM (inactive) | > 100 µM (inactive) | > 100 µM (inactive) | > 100 µM (inactive) | > 100 µM (inactive) | > 100 µM (inactive) | > 100 µM (inactive) | > 100 µM (inactive) | > 100 µM (inactive) | 68.7 µM (inactive) | > 100 µM (inactive) | 68.1 µM (inactive)
2 | CC12c3c4cccc3Oc3cc(N)cc(c31)Oc1cc(N)cc(c12)O4 | 8.43 µM (inactive) | 3.58 µM (inactive) | 5.52 µM (inactive) | 3.77 µM (inactive) | 3.5 µM (inactive) | 3.77 µM (inactive) | 2.96 µM (inactive) | 3.44 µM (inactive) | 9.86 µM (inactive) | 5.75 µM (inactive) | 4.59 µM (inactive) | 10 µM (inactive) | 2.99 µM (inactive) | 4.31 µM (inactive) | 6 µM (inactive) | 0.953 µM (active) | 17.7 µM (inactive) | 3.38 µM (inactive) | 2.41 µM (inactive) | 6.18 µM (inactive)
3 | CCOC(=O)NC(NC(C)CC)(C(F)(F)F)C(F)(F)F (stereo not given) | > 100 µM (inactive) | > 100 µM (inactive) | > 100 µM (inactive) | > 100 µM (inactive) | > 100 µM (inactive) | > 100 µM (inactive) | > 100 µM (inactive) | > 100 µM (inactive) | > 100 µM (inactive) | > 100 µM (inactive) | > 100 µM (inactive) | > 100 µM (inactive) | > 100 µM (inactive) | > 100 µM (inactive) | > 100 µM (inactive) | > 100 µM (inactive) | > 100 µM (inactive) | > 100 µM (inactive) | > 100 µM (inactive) | > 100 µM (inactive)
4 | Oc1ccc(/C=C/c2cc(O)cc3c2C(c2cc(O)cc(O)c2)C(c2ccc(O)c(O)c2)O3)cc1 (stereo not given) | 18.8 µM (inactive) | 31.3 µM (inactive) | 35.1 µM (inactive) | 45.6 µM (inactive) | 29 µM (inactive) | 49.5 µM (inactive) | 34.4 µM (inactive) | 31.4 µM (inactive) | 31.7 µM (inactive) | 35.9 µM (inactive) | 18.2 µM (inactive) | 27.1 µM (inactive) | 26.7 µM (inactive) | 35.6 µM (inactive) | 27 µM (inactive) | 31.8 µM (inactive) | 30.9 µM (inactive) | 25.3 µM (inactive) | 27.8 µM (inactive) | 26.4 µM (inactive)
